The values below are quoted from earlier work in publication PMC10664590 (Chemical Science, 2023).

With `O=c1ccc2ccc(O)cc2o1` [7-hydroxy-cumarine], the long-wavelength absorption maximum entry is “around 330 nm”. Further, the fluorescence maximum entry (in ethanol) is recorded as “around 380 nm”.
